Results: patent US20100297056A1, “COMPOSITION BASED ON PERHYDROSQUALENE AND COLLAGEN-POLYVINYLPYRROLIDONE FOR FILLING MINOR CUTANEOUS DEPRESSIONS” (ASPID, S.A. DE C.V., priority 2007, published 2010)

Experiments:
rat skin = test: murine model of intradermal administration of implant materials; assay type: in vivo, rats; conditions: sensorial analog scale, papule palpation
Procedure: Because of the above, a murine model essay of intradermal administration was designed, wherein several implant materials were evaluated such as natural and synthetic jojoba oil, peanut oil and perhydrosqualene, mixed with collagen-polyvinylpyrrolidone, various emulsifiers and a gelling agent (dibutyl-lauroyl glutamide). The administration of the implant materials generated papules, formed by the deposition of the material in the reticular dermis of the back of the rats. The papules were evaluated with regard to the tolerance of the tissue to the implant through a visual analog scale during a period of about 30 days, with their intervals; moreover, the eventual occurrence of skin changes such as irritation, ischemia formation and in some cases tissue necrosis related to the implanted material were reported, as well as the durability of the bioimplant that was quantified through a sensorial analog scale derived from the papule palpation.
In the same way, histological rat skin changes were evaluated through biopsies obtained from the implant infiltrated site, said biopsies were collected at different times in order to determine whether changes occurred in the internal skin structure, as well as to observe the implant site, the inflammatory infiltrate, the ratio between type I and type III collagens, as well as the possible formation of granulomes.

[1] = in vivo; cited from earlier work
[2] = humans; cited from earlier work
[3] = mice; cited from earlier work
[4] = excreted through natural routes; cited from earlier work
[5] = rats, oral, three-month period; cited from earlier work
[6] = dogs, cited from earlier work

CC(C)CCCC(C)CCCC(C)CCCCC(C)CCCC(C)CCCC(C)C (stereo not drawn) [perhydrosqualene, 2,6,10,15,19,23-hexamethyltetracosane]
durability of the bioimplant in the tissue (rat skin): constant even 15 days after its administration | mean lethal dose DL50 [1]: > 20 mL/kg | cutaneous and ocular irritation [2]: absence of cutaneous and ocular irritation | irritation after subcutaneous injections [3]: absence of cutaneous and ocular irritation | metabolism [4]: non-metabolizable | signs of toxicity [5]: did not show signs of toxicity | blood level ([6]; 1200 mg/kg during 14 days): 30 ppm | perhydrosqualene excretion ([6]; 1200 mg/kg during 14 days): 65-90 % per day | perhydrosqualene in blood on day 56 ([6]; day 56 after the first dose): not detectable
